Where two headings read alike, the source gives them in different places.
Assays:
[1] = Stability test of the crystal of the compound represented by Formula I; format: physicochemical
Text: Samples were taken on day 5 or day 10 and tested, respectively, and the results were compared with the initial results.

[2] = Pharmacokinetics in Beagle dogs; format: in vivo; details: 2 mg/kg (in free form), plasma; for MRT last: read-out: MRT(0−t); for bioavailability: relative to the compound represented by Formula I, read-out: Relative F %
Method: Male Beagle dogs were fasted for about 12 h prior to administration and had free access to water. The dogs were also fasted for 4 hours after administration. Blood samples (0.8 mL) were taken from the forelimb vein of the subject Beagle dogs at 0.25, 0.5, 1, 2, 4, 6, 8, 10, 24, 30, 48, and 72 h after administration. The samples were then placed in EDTA-K2 centrifuge tubes, stored at 4° C., and centrifuged for 10 min at a speed of 4000 rpm at 4° C. within 0.5 h after blood collection to separate plasma. The plasma was stored at […] within 1 h after collecting all the plasma.
300 μL of a solution of an internal standard substance in methanol was added to 50 μL of the plasma sample to be tested and a standard curve sample, respectively. The resulting mixture was mixed uniformly by shaking for 5 min, and centrifuged for 10 min at a speed of 13000 rpm. Then 80 μL of supernatant was taken, and 5 μL of the supernatant was pipetted for LC/MS/MS determination, and the chromatogram was recorded.

[3] = High Humidity (RH92.5%, 25° C.), Day 5
[4] = High Humidity (RH92.5%, 25° C.), Day 10
[5] = Light Irradiation (6000 lux), Day 5
[6] = Light Irradiation (6000 lux), Day 10
[7] = male Beagle dogs, crystalline form
[8] = male, Beagle, dog, po, 2 mg/kg, crystalline form
[9] = male, Beagle, dog, oral, 2 mg/kg, crystalline form

## CS(=O)(=O)c1ccc2c(c1)CN([C@H]1CO[C@H](c3cc(F)ccc3F)[C@@H](N)C1)C2 [(2R,3S,5R)-5-(5-methanesulfonylisoindolin-2-yl)-2-(2,5-difluorophenyl)tetrahydro-2H-pyran-3-amine]
[1]; 40° C., Day 5
  Content (%): 99.6%
  Total impurity (%): 0.31%
[1]; 40° C., Day 10
  Content (%): 99.6%
  Total impurity (%): 0.37%
[1]; 60° C., Day 5
  Content (%): 100.2%
  Total impurity (%): 0.30%
[1]; 60° C., Day 10
  Content (%): 99.4%
  Total impurity (%): 0.33%
[1]; Day 0
  Content (%): 99.1%
  Total impurity (%): 0.39%
[1]; [3]
  Content (%): 100.3%
  Total impurity (%): 0.27%
[1]; [4]
  Content (%): 99.9%
  Total impurity (%): 0.32%
[1]; [5]
  Content (%): 99.5%
  Total impurity (%): 0.33%
[1]; [6]
  Content (%): 99.3%
  Total impurity (%): 0.44%
[1]; all conditions and days (Day 0, 40° C., 60° C., high humidity, light irradiation)
  Appearance: Off-white powdered solid

## CS(=O)(=O)c1ccc2c(c1)CN([C@H]1CO[C@H](c3cc(F)ccc3F)[C@@H](N)C1)C2 [The phosphate of the compound represented by Formula I] [Phosphate of (2R,3S,5R)-5-(5-methanesulfonylisoindolin-2-yl)-2-(2,5-difluorophenyl)tetrahydro-2H-pyran-3-amine]
[2]; [7]
  AUC(0−t): 22746 ng·h/mL
  AUC(0−∞): 23508 ng·h/mL
  Cmax: 1746 ng/mL
  MRT(0−t): 17.9 h
  Tmax: 0.67 h
  t1/2: 16.9 h

## CS(=O)(=O)c1ccc2c(c1)CN([C@H]1CO[C@H](c3cc(F)ccc3F)[C@@H](N)C1)C2 [The compound represented by Formula I, (2R,3S,5R)-5-(5-methanesulfonylisoindolin-2-yl)-2-(2,5-difluorophenyl)tetrahydro-2H-pyran-3-amine]
[2]; [8]
  AUC(0-inf): 15800 ng·h/mL
  AUC(0-t): 15200 ng·h/mL
  half-life: 16.4 h
  MRT last: 20.6 h
[2]; male, Beagle, dog, po, 2 mg/kg, crystalline form, read-out: Cmax
  Cmax: 926 ng/mL
[2]; male, Beagle, dog, po, 2 mg/kg, crystalline form, read-out: Tmax
  Tmax: 6 h
[2]; male, Beagle, dog, po, 2 mg/kg
  bioavailability: 100%

## CS(=O)(=O)c1ccc2c(c1)CN([C@H]1CO[C@H](c3cc(F)ccc3F)[C@@H](N)C1)C2 [fumarate of (2R,3S,5R)-5-(5-methanesulfonylisoindolin-2-yl)-2-(2,5-difluorophenyl)tetrahydro-2H-pyran-3-amine]
[2]; [9]
  AUC(0-inf): 20300 ng·h/mL
  AUC(0-t): 19500 ng·h/mL
  half-life: 16.6 h
  MRT last: 20.3 h
[2]; male, Beagle, dog, oral, 2 mg/kg, crystalline form, read-out: Cmax
  Cmax: 1220 ng/mL
[2]; male, Beagle, dog, oral, 2 mg/kg, crystalline form, read-out: Tmax
  Tmax: 0.75 h
[2]; male, Beagle, dog, oral, 2 mg/kg
  bioavailability: 152%
